# What was measured:
# wheat = experiment: Test B pre/postemergence wheat; format: in vivo, Triticum aestivum; settings: Preemergence
# Outline: (§1)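 Test chemicals in a non-phytotoxic solvent mixture with surfactant were sprayed preemergence onto planted seeds and postemergence onto plants 2 to 18 cm tall (1- to 4-leaf stage). After twelve to sixteen days in a greenhouse, injury was visually rated against untreated controls from 0 (no effect) to 10 (complete control).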
# purple nutsedge = experiment: Test B pre/postemergence purple nutsedge; format: in vivo, Cyperus rotundus; settings: Preemergence
# Outline: as §1
# giant foxtail = experiment: Test B pre/postemergence giant foxtail; format: in vivo, Setaria faberii; settings: Preemergence
# Outline: as §1
# duck salad = experiment: Test B flood test duck salad; format: in vivo, Heteranthera limosa
# Outline: (§2)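 Flood test on plants grown to the 2-leaf stage; treated plants kept in greenhouse twelve to sixteen days, then visually rated against controls on a 0 (no effect) to 10 (complete control) scale.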
# rape = experiment: Test B pre/postemergence rape; format: in vivo, Brassica napus; settings: Preemergence
# Outline: as §1
# cocklebur = experiment: Test B pre/postemergence cocklebur; format: in vivo, Xanthium strumarium; settings: Preemergence
# Outline: as §1
# morningglory = experiment: Test B pre/postemergence morningglory; format: in vivo, Ipomoea hederacea; settings: Preemergence
# Outline: as §1
# soybean = experiment: Test B pre/postemergence soybean; format: in vivo, Glycine max; settings: Preemergence
# Outline: as §1
# pigweed = experiment: Test B pre/postemergence pigweed; format: in vivo, Amaranthus retroflexus; settings: Preemergence
# Outline: as §1
# bamyardgrass = experiment: Test B flood test barnyardgrass; format: in vivo, Echinochloa crus-galli
# Outline: as §2
# bedstraw = experiment: Test B pre/postemergence bedstraw; format: in vivo, Galium aparine; settings: Preemergence
# Outline: as §1
# surinam grass = experiment: Test B pre/postemergence surinam grass; format: in vivo, Brachiaria decumbens; settings: Preemergence
# Outline: as §1
# smallflower flatsedge = experiment: Test B flood test smallflower flatsedge; format: in vivo, Cyperus difformis
# Outline: as §2
# corn = experiment: Test B pre/postemergence corn; format: in vivo, Zea mays; settings: Preemergence
# Outline: as §1
# wild oat = experiment: Test B pre/postemergence wild oat; format: in vivo, Avena fatua; settings: Preemergence
# Outline: as §1
# blackgrass = experiment: Test B pre/postemergence blackgrass; format: in vivo, Alopecurus myosuroides; settings: Preemergence
# Outline: as §1
# rice = experiment: Test B flood test rice; format: in vivo, Oryza sativa
# Outline: as §2
# velvetleaf = experiment: Test B pre/postemergence velvetleaf; format: in vivo, Abutilon theophrasti; settings: Preemergence
# Outline: as §1
# sugar beet = experiment: Test B pre/postemergence sugar beet; format: in vivo, Beta vulgaris; settings: Preemergence
# Outline: as §1
# crabgrass = experiment: Test B pre/postemergence crabgrass; format: in vivo, Digitaria sanguinalis; settings: Preemergence
# Outline: as §1
# [1] = Rate 62 g/ha, scale of 0 to 10 where 0 is no effect and 10 is complete control
# [2] = Rate 125 g/ha, scale of 0 to 10 where 0 is no effect and 10 is complete control
# [3] = Rate 250 g/ha, scale 0 (no effect) to 10 (complete control)
# [4] = Rate 500 g/ha, scale 0 to 10 (0 no effect, 10 complete control)
# [5] = Pre-emergence, Rate 62 g/ha, scale 0 to 10, 0 is no effect, 10 is complete control
# [6] = Rate 125 g/ha, Pre-emergence section (flood test species), scale 0 to 10, 0 no effect, 10 complete control
# [7] = Rate 250 g/ha, Pre-emergence (flood test species), scale 0 to 10, 0 is no effect, 10 is complete control
# [8] = Rate 500 g/ha, Pre-emergence section of Table B, 0 to 10 scale (0 no effect, 10 complete control)
compound,measurement,setting,value
CC(C)N(C(=O)n1oc(=O)n(C(C)C2CC2)c1=O)c1ccc(F)cc1F (centres unmarked) [Compound 720],Wheat plant response rating,wheat; [1],0
same,"Plant response rating, Wheat",wheat; [2],0
same,Wheat plant response rating,wheat; [3],5
same,Wheat plant response rating,wheat; [4],5
same,"Plant response rating, Nutsedge",purple nutsedge; [2],0
same,Nutsedge plant response rating,purple nutsedge; [4],0
same,Giant foxtail plant response rating,giant foxtail; [1],9
same,"Plant response rating, Giant foxtail",giant foxtail; [2],10
same,Giant foxtail plant response rating,giant foxtail; [3],10
same,Giant foxtail plant response rating,giant foxtail; [4],10
same,Ducksalad plant response rating,duck salad; [5],0
same,Ducksalad plant response rating,duck salad; [6],0
same,Ducksalad plant response rating,duck salad; [7],0
same,Ducksalad plant response rating,duck salad; [8],0
same,Rape plant response rating,rape; [1],6
same,"Plant response rating, Rape",rape; [2],7
same,Rape plant response rating,rape; [3],9
same,Rape plant response rating,rape; [4],9
same,Cocklebur plant response rating,cocklebur; [1],0
same,"Plant response rating, Cocklebur",cocklebur; [2],0
same,Cocklebur plant response rating,cocklebur; [3],0
same,Morningglory plant response rating,morningglory; [1],0
same,"Plant response rating, Morningglory",morningglory; [2],0
same,Morningglory plant response rating,morningglory; [4],2
same,Soybean plant response rating,soybean; [1],0
same,"Plant response rating, Soybean",soybean; [2],0
same,Soybean plant response rating,soybean; [3],0
same,Soybean plant response rating,soybean; [4],0
same,Redroot pigweed plant response rating,pigweed; [1],8
same,"Plant response rating, Redroot pigweed",pigweed; [2],9
same,Redroot pigweed plant response rating,pigweed; [3],10
same,Redroot pigweed plant response rating,pigweed; [4],10
same,Barnyardgrass plant response rating,bamyardgrass; [5],0
same,Barnyardgrass plant response rating,bamyardgrass; [6],0
same,Barnyardgrass plant response rating,bamyardgrass; [7],0
same,Barnyardgrass plant response rating,bamyardgrass; [8],0
same,"Plant response rating, Bedstraw",bedstraw; [2],10
same,Bedstraw plant response rating,bedstraw; [3],10
same,Bedstraw plant response rating,bedstraw; [4],10
same,B. signalgrass plant response rating,surinam grass; [1],8
same,"Plant response rating, B. signalgrass",surinam grass; [2],9
same,B. signalgrass plant response rating,surinam grass; [3],10
same,B. signalgrass plant response rating,surinam grass; [4],10
same,S. Flatsedge plant response rating,smallflower flatsedge; [5],0
same,S. Flatsedge plant response rating,smallflower flatsedge; [6],0
same,S. Flatsedge plant response rating,smallflower flatsedge; [7],0
same,S. Flatsedge plant response rating,smallflower flatsedge; [8],0
same,Corn plant response rating,corn; [1],0
same,"Plant response rating, Corn",corn; [2],2
same,Corn plant response rating,corn; [3],4
same,Wild oats plant response rating,wild oat; [1],7
same,"Plant response rating, Wild oats",wild oat; [2],8
same,Wild oats plant response rating,wild oat; [3],9
same,Wild oats plant response rating,wild oat; [4],9
same,Blackgrass plant response rating,blackgrass; [1],9
same,"Plant response rating, Blackgrass",blackgrass; [2],9
same,Blackgrass plant response rating,blackgrass; [3],10
same,Blackgrass plant response rating,blackgrass; [4],10
same,Rice plant response rating,rice; [5],0
same,Rice plant response rating,rice; [6],0
same,Rice plant response rating,rice; [7],0
same,Rice plant response rating,rice; [8],0
same,Velvetleaf plant response rating,velvetleaf; [1],1
same,"Plant response rating, Velvetleaf",velvetleaf; [2],2
same,Velvetleaf plant response rating,velvetleaf; [3],3
same,Velvetleaf plant response rating,velvetleaf; [4],3
same,Sugarbeets plant response rating,sugar beet; [1],4
same,"Plant response rating, Sugarbeets",sugar beet; [2],6
same,Sugarbeets plant response rating,sugar beet; [3],8
same,Sugarbeets plant response rating,sugar beet; [4],8
same,Crabgrass plant response rating,crabgrass; [1],9
same,"Plant response rating, Crabgrass",crabgrass; [2],9
same,Crabgrass plant response rating,crabgrass; [3],10
same,Crabgrass plant response rating,crabgrass; [4],10

# — US6737383B1, “Herbicidal oxadiazolidines” (priority 1999, dated 2004)
